Here are results for five molecules from US20110015119A1, “NOVEL SEMI-SYNTHETIC GLYCOPEPTIDES AS ANTIBACTERIAL AGENTS” (LEAD THERAPEUTICS, INC., priority 2009, published 2011).

Structures are written as SMILES. Converted amounts (≈) assume the structure as drawn. Bounds are passed on as bounds.

One may read the MIC as the lowest concentration found to suppress growth.

What all share (assay type): cell-based
In assay [1] the test system is Enterococcus faecium 752 (VRE, Van A). The assay can be described thus: MIC by broth microdilution, EFcm 752. Conditions: Enterococcus faecium, VRE, read-out: MIC E FCM 752, Enterococcus faecium 752 (VRE, Van A); class symbols. The essentials: (§1)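 Per CLSI: serial twofold handling automated, Mueller-Hinton broth, clinical isolate inoculum, MIC recorded.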
A general note: Dilution methods test growth across graded concentrations, often in twofold steps.

Assay [2] has as its system Staphylococcus aureus 2012 (VISA). The assay can be described thus: MIC by broth microdilution, SA 2012. Conditions: Staphylococcus aureus, VISA, read-out: MIC SA 2012, Staphylococcus aureus 2012 (VISA); class symbols. Summed up: as §1
Assay [3] has as its system Staphylococcus epidermidis 835. The experiment in a line: MIC by broth microdilution, SE 835. Conditions: Staphylococcus epidermidis, 835, read-out: MIC SE 835. The essentials:
as §1

The test system of assay [4] is Enterococcus faecalis 848 (VRE, Van A). The experiment in a line: MIC by broth microdilution, EFc 848. To be noted: Enterococcus faecalis, VRE, read-out: MIC E FC 848, Enterococcus faecalis 848 (VRE, Van A); class symbols. Summed up: as §1
Assay [5] deals with Enterococcus faecium 800. The assay can be described thus: MIC by broth microdilution, EFcm 800. To be noted: Enterococcus faecium, 800, read-out: MIC E FCM 800. Summed up: as §1
For assay [6], the system named is Enterococcus faecalis 101 (ATCC 29212). The experiment in a line: MIC by broth microdilution, EFc 101. To be noted: Enterococcus faecalis, ATCC29212, read-out: MIC E FC 101, Enterococcus faecalis 101 (ATCC 29212); class symbols. The essentials: as §1
Assay [7] has as its system Staphylococcus aureus 100 (ATCC 29213). The assay can be described thus: MIC by broth microdilution, SA 100. To be noted: Staphylococcus aureus, ATCC29213, read-out: MIC SA 100. Summed up: as §1
Assay [8] concerns Staphylococcus aureus 757 (MRSA). The experiment in a line: MIC by broth microdilution, SA 757. To be noted: Staphylococcus aureus, MRSA, read-out: MIC SA 757. Summed up:
as §1

Assay [9] concerns Streptococcus pyogenes 712. The assay can be described thus: MIC by broth microdilution, SPY 712. Conditions: Streptococcus pyogenes, 712, read-out: MIC S PYO 712. The essentials:
as §1

The subject of assay [10] is Staphylococcus epidermidis 831 (MRSE). The experiment in a line: MIC by broth microdilution, SE 831. Conditions: Staphylococcus epidermidis, MRSE, read-out: MIC SE 831. Summed up: as §1
In assay [11] the test system is Streptococcus pneumoniae 1195 (ATCC 49619). The assay can be described thus: MIC by broth microdilution, SPNE 1195. Conditions: Streptococcus pneumoniae, ATCC49619, read-out: MIC S PNE 1195. The essentials:
as §1

In the case of `CCCCCOc1ccc(S(=O)(=O)NCCCCNC(=O)Oc2cc(O)c3c(c2)[C@@H](C(=O)NC2C4CC5CC(C4)CC2C5)NC(=O)[C@H]2NC(=O)[C@H](NC(=O)[C@@H]4NC(=O)[C@H](CC(N)=O)NC(=O)[C@H](NC(=O)[C@@H](CC(C)C)NC)[C@H](O)c5ccc(c(Cl)c5)Oc5cc4cc(c5O[C@@H]4O[C@H](CO)[C@@H](O)[C@H](O)[C@H]4O[C@H]4C[C@](C)(N)[C@H](O)[C@H](C)O4)Oc4ccc(cc4Cl)[C@H]2O)c2ccc(O)c-3c2)cc1` (stereo partly shown) [Compound 334], the minimal inhibitory concentration (MIC) in assay [1] fell in the range of 0.5 to 1 µg/mL (≈ 0.26 to 0.52 µM); in [2], 1 to 2 µg/mL (≈ 0.52 to 1.04 µM); in assay [3], 0.01 to 0.5 µg/mL (≈ 0.0052 to 0.26 µM); in assay [4], 8 to 16 µg/mL (≈ 4.16 to 8.32 µM); in assay [5] it was 0.01 to 0.5 µg/mL (≈ 0.0052 to 0.26 µM); in assay [6], 0.01 to 0.5 µg/mL (≈ 0.0052 to 0.26 µM). The minimum inhibitory concentration (MIC) in assay [7], in [8], in assay [9], in assay [10] and in assay [11] was 0.01 to 0.5 µg/mL (≈ 0.0052 to 0.26 µM) in each case.

Take `CNCCOc1ccc(CCNC(=O)Oc2cc(O)c3c(c2)[C@@H](C(=O)NC2C4CC5CC(C4)CC2C5)NC(=O)[C@H]2NC(=O)[C@H](NC(=O)[C@@H]4NC(=O)[C@H](CC(N)=O)NC(=O)[C@H](NC(=O)[C@@H](CC(C)C)NC)[C@H](O)c5ccc(c(Cl)c5)Oc5cc4cc(c5O[C@@H]4O[C@H](CO)[C@@H](O)[C@H](O)[C@H]4O[C@H]4C[C@](C)(N)[C@H](O)[C@H](C)O4)Oc4ccc(cc4Cl)[C@H]2O)c2ccc(O)c-3c2)cc1` (stereo partly shown) [Compound 335]: the MIC was 2 to 4 µg/mL (≈ 1.11 to 2.22 µM) in [1]; 1 to 2 µg/mL (≈ 0.555 to 1.11 µM) in [2]; 0.01 to 0.5 µg/mL (≈ 0.00555 to 0.277 µM) in [3]; more than 16 µg/mL in assay [4]; 0.01 to 0.5 µg/mL (≈ 0.00555 to 0.277 µM) in assay [5]; 0.01 to 0.5 µg/mL (≈ 0.00555 to 0.277 µM) in assay [6]. In addition, the minimal inhibitory concentration (MIC) in assay [7], in assay [8], in assay [9], in assay [10] and in assay [11] was 0.01 to 0.5 µg/mL (≈ 0.00555 to 0.277 µM) each time.

As to `CNCCCCCNC(=O)Oc1cc(O)c2c(c1)[C@@H](C(=O)NC1C3CC4CC(C3)CC1C4)NC(=O)[C@H]1NC(=O)[C@H](NC(=O)[C@@H]3NC(=O)[C@H](CC(N)=O)NC(=O)[C@H](NC(=O)[C@@H](CC(C)C)NC)[C@H](O)c4ccc(c(Cl)c4)Oc4cc3cc(c4O[C@@H]3O[C@H](CO)[C@@H](O)[C@H](O)[C@H]3O[C@H]3C[C@](C)(N)[C@H](O)[C@H](C)O3)Oc3ccc(cc3Cl)[C@H]1O)c1ccc(O)c-2c1` (stereo partly shown) [Compound 336], the MIC in assay [1] was more than 16 µg/mL; in assay [2], 1 to 2 µg/mL (≈ 0.58 to 1.16 µM); in [3], 0.01 to 0.5 µg/mL (≈ 0.0058 to 0.29 µM); in assay [4], more than 16 µg/mL; in assay [5] it was 0.01 to 0.5 µg/mL (≈ 0.0058 to 0.29 µM); in assay [6], 0.01 to 0.5 µg/mL (≈ 0.0058 to 0.29 µM). For the same molecule, the MIC in assay [7], in assay [8], in assay [9], in [10] and in assay [11] was 0.01 to 0.5 µg/mL (≈ 0.0058 to 0.29 µM) each time.

As for `CCNCCOc1ccc(CCNC(=O)Oc2cc(O)c3c(c2)[C@@H](C(=O)NC2C4CC5CC(C4)CC2C5)NC(=O)[C@H]2NC(=O)[C@H](NC(=O)[C@@H]4NC(=O)[C@H](CC(N)=O)NC(=O)[C@H](NC(=O)[C@@H](CC(C)C)NC)[C@H](O)c5ccc(c(Cl)c5)Oc5cc4cc(c5O[C@@H]4O[C@H](CO)[C@@H](O)[C@H](O)[C@H]4O[C@H]4C[C@](C)(N)[C@H](O)[C@H](C)O4)Oc4ccc(cc4Cl)[C@H]2O)c2ccc(O)c-3c2)cc1` (stereo partly shown) [Compound 337], the MIC in assay [1] lay within 4 to 8 µg/mL (≈ 2.2 to 4.4 µM); in assay [2], 1 to 2 µg/mL (≈ 0.55 to 1.1 µM); in [3] it was 0.01 to 0.5 µg/mL (≈ 0.0055 to 0.275 µM); in [4], 8 to 16 µg/mL (≈ 4.4 to 8.81 µM); in [5], 0.01 to 0.5 µg/mL (≈ 0.0055 to 0.275 µM); in assay [6] it was 0.01 to 0.5 µg/mL (≈ 0.0055 to 0.275 µM). The MIC in assay [7], in [8], in assay [9], in assay [10] and in [11] was 0.01 to 0.5 µg/mL (≈ 0.0055 to 0.275 µM) throughout.

As to `CCCCOc1ccc(CCNC(=O)Oc2cc(O)c3c(c2)[C@@H](C(=O)NC2C4CC5CC(C4)CC2C5)NC(=O)[C@H]2NC(=O)[C@H](NC(=O)[C@@H]4NC(=O)[C@H](CC(N)=O)NC(=O)[C@H](NC(=O)[C@@H](CC(C)C)NC)[C@H](O)c5ccc(c(Cl)c5)Oc5cc4cc(c5O[C@@H]4O[C@H](CO)[C@@H](O)[C@H](O)[C@H]4O[C@H]4C[C@](C)(N)[C@H](O)[C@H](C)O4)Oc4ccc(cc4Cl)[C@H]2O)c2ccc(O)c-3c2)cc1` (stereo partly shown) [Compound 339], the MIC in [1] was 0.5 to 1 µg/mL (≈ 0.278 to 0.555 µM); in assay [2], 0.5 to 1 µg/mL (≈ 0.278 to 0.555 µM); in assay [3], 0.01 to 0.5 µg/mL (≈ 0.00555 to 0.278 µM); in [4], 4 to 8 µg/mL (≈ 2.22 to 4.44 µM); in assay [5], 0.01 to 0.5 µg/mL (≈ 0.00555 to 0.278 µM); in assay [6], 0.01 to 0.5 µg/mL (≈ 0.00555 to 0.278 µM). For the same molecule, the minimum inhibitory concentration (MIC) in [7], in assay [8], in assay [9], in assay [10] and in assay [11] was 0.01 to 0.5 µg/mL (≈ 0.00555 to 0.278 µM) each time.
